17 molecules from publication PMC4460047 (PLoS ONE, 2015) can be followed below.

Several values for one entry are separate records, joined by “and”; a condition that tells them apart may be missing. Equal values may be shown once. Marks after values point to notes of the source that are not given here.

A word on the share remaining: it is the share of the starting amount still present when the sample was taken.

The nature of series [1]: Chemical stability in phosphate buffered saline pH 7.4. As to conditions: for L- and D-aspartate derivatives produced by deamidation at the side chain: buffer pH 7.4, data not shown; for %Compd at 6 h, pH 7.4: percent remaining after 6 h of incubation at 37°C in PBS buffer pH 7.4. Type of series: physicochemical. How it is done: (§1) The chemical and metabolic stability of PEA and all prodrugs were studied by incubating each compound (5 μL of a […] solution in DMSO, or DMSO as control) with 495 μL of 10 mM phosphate buffered saline pH 7.4 for chemical stability, 80% v/v rat plasma or 20% w/v rat liver homogenate prepared accordingly to previously described procedures for metabolic stability, reaching a final concentration of 50 nm for the test compound.
(§2) Rat plasma and liver samples were pre-incubated at 37°C for 10 min before adding the compounds. After incubation for different time periods (0, 15, 30, 60, 120, 240 and 360 min), samples were deproteinized by adding 100 μL of acetonitrile with 75 nmol L^-1 IS (PEA-d4). The samples were centrifuged (14 000 g, 10 min, 4°C), and the supernatants were analyzed by HPLC–ESI–MS/MS. For each tested compound, a multiple reaction monitoring (MRM) ESI–MS/MS method was set up in order to monitor the relative concentration of compound and released PEA at the different incubation times, compared to the time t = 0, in rat plasma and liver homogenate.

Series [2] is described as follows: Stability and PEA release in 80% v/v rat plasma. The series is classed as in vitro ADME. Particulars: for half-life at 50 nM: rat, pH 7.4, 80% v/v rat plasma, read-out: Rat Plasma Compd t 1/2; for half-life at 50 nM / Rat Plasma Compd t 1/2: 50 nm compound; for remaining at 6 h, 50 nM: pH 7.4, read-out: Percent remaining after 6 h incubation in rat plasma. On the procedure: as §1, §2
Cmax and tmax in rat plasma were read from the raw data as the coordinates of the highest concentration observed. A Thermo TSQ Quantum triple-quadrupole mass spectrometer (Thermo Italia, Milan, Italy) with heated electrospray ionization (H-ESI) ion source was used for mass detection and analysis. Mass spectrometric analyses were done in positive ion mode. H-ESI interface parameters were set as follows: probe middle (D) position; capillary temperature 270°C; spray voltage 3.0 kV. Nitrogen was used as nebulizing gas at the following pressure: sheath gas 35 psi; auxiliary gas 15 arbitrary units (a.u.). Argon was used as the collision gas at a pressure of approximately 1.5 mtorr (1 torr = 133.3 Pa). For quantitative analysis, the following parent ion → product ions transitions were selected: PEA (1): m/z 300.2 → m/z 62.3 (tube lens 60 V; collision energy 19 eV); PEA-d4 (Internal Standard): m/z 304.2 → m/z 66.3 + m/z 287.2 (tube lens 72 V; collision energy 15, 12 eV). MRM transitions, tube lens voltages and collision energies for compounds 3–5, 7–9, 19–24, 26–31, and 33 are reported in the S1 File. […] The coefficients of correlation (r^2) were >0.99 for all curves. The LOQ was 1 nmol mL^−1 for all analytes. Extraction efficiency was determined by comparing the peak area ratio of spiked samples at three concentration levels (low, intermediate, and high) to those of extracted charcoal treated blank plasma spiked with the corresponding concentrations. The mean extraction recovery ranged from 109% to 91% for all compounds. The specificity of the assay was evaluated by comparison of HPLC–ESI–MS/MS chromatograms of the analytes at the LOQ to those of charcoal treated blank plasma samples in triplicate.

The nature of series [3]: Stability in 20% w/v rat liver homogenate. As to conditions: 37°C; for half-life at 50 nM / remaining at 2 h, 50 nM: rat, 20% w/v rat liver homogenate; for half-life at 50 nM: read-out: Rat Liver Compd t 1/2; for remaining at 2 h, 50 nM: read-out: Percent remaining after 2 h incubation in rat liver homogenate. Type of series: in vitro ADME. How it is done: as §1, §2

On to `CCCCCCCCCCCCCCCC(=O)NCCOC(=O)[C@@H](N)CC(N)=O.Cl` [compound 23, 2-(Palmitoylamino)ethyl L-asparaginate hydrochloride], for which the “L- and D-aspartate derivatives produced by deamidation at the side chain” value in series [1] is listed as “about 1%”. In addition, the “%Compd at 6 h, pH 7.4” value in series [1] was 3% and 3.3 ± 0.3%. Moreover, the half-life at 50 nM was ~3.3 min in series [1] (phosphate buffered saline, pH 7.4, read-out: t 1/2 in buffered solution at pH 7.4); ~9 min in series [2] (80% v/v rat plasma, 37°C); 24 ± 1 min in series [3] (rat liver homogenate).
With `CCCCCCCCCCCCCCCC(=O)NCCOC(=O)[C@@H](N)Cc1c[nH]c2ccccc12.Cl` [compound 22, 2-(Palmitoylamino)ethyl L-tryptophanate hydrochloride], in series [1], the “%Compd at 6 h, pH 7.4” value is listed as 96 ± 1%. For the same molecule, in series [2] (80% v/v rat plasma, 37°C), the “Rat Plasma Compd t 1/2” value was determined as 4.5 ± 0.5 min and the half-life at 50 nM was ~5 min. For the same molecule, the half-life at 50 nM in series [3] (rat liver homogenate) was ~36 min.
Regarding `CCCCCCCCCCCCCCCC(=O)NCCOC(=O)[C@@H](N)CCC(N)=O.Cl` [compound 24, 2-(Palmitoylamino)ethyl L-glutaminate hydrochloride], the “%Compd at 6 h, pH 7.4” value in series [1] is reported as 61 ± 3%. In addition, the half-life at 50 nM in series [2] (80% v/v rat plasma, 37°C) is 18 ± 1 min; in series [3] (rat liver homogenate), ~80 min.
Consider (S)-α-methyl-PEA [compound 30], for which the “%Compd at 6 h, pH 7.4” value in series [1] was 96 ± 3%. In addition, the “Percent remaining after 6 h incubation in rat plasma” value in series [2] (80% v/v rat plasma, 37°C, 6 h) is reported as 80 ± 4% ^e. Besides, the “Percent remaining after 2 h incubation in rat liver homogenate” value in series [3] (2 h) worked out at 79 ± 6% ^f.
Consider `CCCCCCCCCCCCCCCC(=O)NCCOC(=O)OCOC(=O)C(C)C` [compound 4, Isobutyroyloxymethyl 2-(palmitoylamino)ethyl carbonate], for which, in series [1], the “%Compd at 6 h, pH 7.4” value came to 84 ± 1%. In addition, the half-life at 50 nM was 1.1 ± 0.2 min in series [2] (80% v/v rat plasma, 37°C) and < 1 min in series [3] (rat liver homogenate).
With `CCCCCCCCCCCCCCCC(=O)NCCOC(=O)[C@@H](N)[C@@H](C)CC.Cl` [compound 21, 2-(Palmitoylamino)ethyl L-isoleucinate hydrochloride], in series [1], the “%Compd at 6 h, pH 7.4” value was 103 ± 6%. Also, in series [2] (rat plasma), the “Increase in plasma half-life relative to L-Ala-PEA” value was determined as 200 fold. Also, in series [2] (80% v/v rat plasma, 37°C), the half-life at 50 nM was 205 ± 16 min. Also, in series [3] (2 h), the share remaining at 2 h, 50 nM is 65 ± 5%.
Consider `CCCCCCCCCCCCCCCC(=O)N[C@H](C)COC(=O)[C@@H](N)C(C)C.Cl` [compound 33, (2R)-2-(palmitoylamino)propyl L-valinate hydrochloride], for which the “%Compd at 6 h, pH 7.4” value in series [1] was determined as 93 ± 4%. Besides, in series [2] (rat plasma), the “Rat plasma half-life relative to L-Val-PEA (20)” value stood at 4 fold. Besides, the half-life at 50 nM in series [2] (80% v/v rat plasma, 37°C) was 190 ± 3 min; in series [3] (rat liver homogenate), 38 min.
On to `CCCCCCCCCCCCCCCC(=O)NCCOC(=O)OCOC(=O)C1CCCCC1` [compound 5, (Cyclohexanelcarboxyloyloxy)methyl 2-(palmitoylamino)ethyl carbonate], for which, in series [1], the “%Compd at 6 h, pH 7.4” value is listed as 84 ± 1%. Further, in series [2] (80% v/v rat plasma, 37°C), the “Rat Plasma Compd t 1/2” value came to 5.1 ± 0.5 min and the half-life at 50 nM was 5 min. Moreover, in series [3] (rat liver homogenate), the half-life at 50 nM turned out to be 1.2 ± 0.2 min.
For the molecule `CCCCCCCCCCCCCCCC(=O)NCCOC(=O)C[C@H](N)C(=O)O.Cl` [compound 29, 4-(2-(Palmitoylamino)ethyl) L-aspartate hydrochloride], the “%Compd at 6 h, pH 7.4” value in series [1] was found to be 83 ± 3%. Besides, the half-life at 50 nM came to 262 ± 35 min in series [2] (80% v/v rat plasma, 37°C) and 21 ± 1 min in series [3] (rat liver homogenate).
With `CCCCCCCCCCCCCCCC(=O)NCCOC(=O)NCC(=O)O` [compound 7, N-(2-Palmitoylamino-ethyloxy)carbonyl-glycine], the “%Compd at 6 h, pH 7.4” value in series [1] was 101 ± 1%. In series [2] (80% v/v rat plasma, 37°C, 6 h), the fraction remaining at 6 h, 50 nM worked out at 96 ± 4%. Moreover, the half-life at 50 nM in series [3] (rat liver homogenate) stood at 23 ± 1 min.
As to `CCCCCCCCCCCCCCCC(=O)NCCOC(=O)OCOC(C)=O` [compound 3, Acetoxymethyl 2-(palmitoylamino)ethyl carbonate], the “%Compd at 6 h, pH 7.4” value in series [1] is given as 86 ± 1%. Further, the half-life at 50 nM was < 1 min in series [2] (80% v/v rat plasma, 37°C) and < 1 min in series [3] (rat liver homogenate).
In the case of `CCCCCCCCCCCCCCCC(=O)NCCOC(=O)[C@H](N)CC(N)=O.Cl` [compound 27, 2-(Palmitoylamino)ethyl D-asparaginate hydrochloride], the “L- and D-aspartate derivatives produced by deamidation at the side chain” value in series [1] is recorded as “about 1%”. In addition, in series [1], the “%Compd at 6 h, pH 7.4” value was determined as 3.5 ± 0.3%. For the same molecule, the half-life at 50 nM in series [2] (80% v/v rat plasma, 37°C) is 14 ± 1 min; in series [3] (rat liver homogenate) it was 55 ± 4 min.
Take `CCCCCCCCCCCCCCCC(=O)NCCOC(=O)N[C@@H](C)C(=O)O` [compound 8, N-(2-Palmitoylamino-ethyloxy)carbonyl-L-alanine]: the “%Compd at 6 h, pH 7.4” value in series [1] was 103 ± 3%. The share remaining at 6 h, 50 nM in series [2] (80% v/v rat plasma, 37°C, 6 h) came to 96 ± 2%. Further, in series [3] (rat liver homogenate), the half-life at 50 nM worked out at 29 ± 3 min.
For the molecule `CCCCCCCCCCCCCCCC(=O)NCCOC(=O)N[C@H](C(=O)O)C(C)C` [compound 9, N-(2-Palmitoylamino-ethyloxy)carbonyl-L-valine], the “%Compd at 6 h, pH 7.4” value in series [1] was 99 ± 1%. In addition, the fraction remaining at 6 h, 50 nM in series [2] (80% v/v rat plasma, 37°C, 6 h) stood at 98 ± 1%. Moreover, the fraction remaining at 2 h, 50 nM in series [3] (2 h) is 92 ± 5%.
For the molecule `CCCCCCCCCCCCCCCC(=O)NCCOC(=O)[C@H](C)N.Cl` [compound 19, 2-(palmitoylamino)ethyl L-alaninate hydrochloride], the “%Compd at 6 h, pH 7.4” value in series [1] was found to be 64 ± 5%. The half-life at 50 nM was ~1 min in series [2] (80% v/v rat plasma, 37°C) and ~1 min in series [3] (rat liver homogenate). Further, the “Rat Liver Compd t 1/2” value in series [3] (rat liver homogenate) stood at 1.4 ± 0.5 min.
As for `CCCCCCCCCCCCCCCC(=O)NCCOC(=O)[C@@H](N)CC(=O)O.Cl` [compound 26, 1-(2-(Palmitoylamino)ethyl) L-aspartate hydrochloride], the “%Compd at 6 h, pH 7.4” value in series [1] turned out to be 85 ± 4%. In series [2] (80% v/v rat plasma, 37°C), the half-life at 50 nM came out at 172 ± 2 min. In addition, the share remaining at 2 h, 50 nM in series [3] (2 h) turned out to be 66 ± 5%.
With `CCCCCCCCCCCCCCCC(=O)N[C@H](C)CO` [compound 31, (R)-α-methyl-PEA], the “%Compd at 6 h, pH 7.4” value in series [1] is 95 ± 2%. Further, in series [2] (80% v/v rat plasma, 37°C, 6 h), the amount remaining at 6 h, 50 nM came out at 82 ± 4%. Also, in series [3] (2 h), the share remaining at 2 h, 50 nM amounted to 87 ± 1%.
